{
  "source": "patent US6537545B1",
  "about": "“Use of corneal hardening agents in enzymeorthokeratology” (ISTA Pharmaceuticals, Inc., priority 1998, dated 2003)",
  "format_in_all_cases": "in vivo",
  "key": {"[1]": {"system": "Dutch Belted rabbit corneas", "experiment": "Safety of glyceraldehyde in rabbits, slit lamp examination scores (Example 1)", "conditions": "500 IU hyaluronidase day 1, 3% glyceraldehyde 20 μL intrastromal day 8, then 1 drop three times a day, 50 days, control BSS", "excerpt": "In this Example, the safety of treating Dutch Belted rabbit corneas with glyceraldehyde following administration of the corneal softening enzyme hyaluronidase was investigated. This study involved the use of five (5) pigmented Dutch Belted rabbits, two (2) in the control group and three (3) in the glyceraldehyde treated group.\nAll rabbits received a thorough slit lamp examination on the first day of the study to establish the baseline using the following technique. A Nikon FS-2 Slit Lamp was used for the examinations of the test animals. For each animal examined, the eyes were dilated by instilling one drop of 1.0% tropicamide (Bausch and Lomb, Tampa, Fla.) and 2.5% phenylephrine (Bausch and Lomb, Tampa, Fla.). The animal was then positioned in front of a slit lamp. The corneas of each animal were examined for edema and the surface area involved with edema was estimated. The anterior chambers of the animals were closely examined for chamber depth, aqueous cell and flare, and fibrin. The iris of each animal was examined for atrophy, symmetry, or synechiae. The lens was examined and cellular debris, capsule, or lens protein abnormalities were noted if present. The vitreous humor of each animal were then examined for the presence of cells or other abnormnalities. […]"}, "Dutch Belted rabbit eyes": {"system": "Dutch Belted rabbit eyes", "experiment": "Histopathology of eyes after corneal scraping (Example 2)", "conditions": "one of the four glyceraldehyde treated eyes; presumably due to scraping", "method": "The study animals were sacrificed on Study Day 74 with an intravenous injection of pentobarbital (2 mg/kg). Eyes from the study animals were enucleated immediately post-sacrifice and placed in labeled tubes containing approximately 5 mL of half-strength Kamovsky's fixative (2.5% glutaraldehyde, 2.5% paraformaldehyde, 2.5 mM CaCl2, 100 mM Na Cacodylate, pH 7.4) for approximately 1 hour. The eyes were removed and small windows (1×3 mm) were made in the cornea/iris to allow penetration of the fixative to the vitreous. The eyes were then placed in 25 mL of fresh fixative. The fixed eyes were then sent to Consolidated Veterinary Diagnostics, Inc. (West Sacramento, Calif.) where they underwent routine tissue processing, sectioning, and staining with hematoxylin/eosin. They were examined by a Board Certified Veterinary Pathologist.\nThe eyes which had undergone corneal scraping and a subsequent healing period were sent to Consolidated Veterinary Diagnostics for tissue processing and pathologic interpretation. In toto, 4 eyes from the glyceraldehyde treated group and 2 eyes from the BSS group were evaluated. […] This description would imply a response to injury (presumably the scraping)."}, "[2]": {"system": "eye of myopic human patient", "experiment": "Safety and efficacy of hyaluronidase and topical 3% glyceraldehyde solution, myopia in a human patient (Example 8)", "conditions": "50 IU hyaluronidase, lenses, 3% glyceraldehyde drops 15 days; monitored 196 days", "method": "In this study, a single subject was selected to test the safety and efficacy of using hyaluronidase and a glyceraldehyde solution to treat sub-optimal visual acuity. In this study, the subject was first medically evaluated and a baseline was established. A medical history of the subject was taken and a detailed examination of the subject's eyes was also performed. The subject's eyes were tested to determine: refraction, cell count, intraocular pressure (IOP), pachymetry, corneal topography and corneal elasticity. A slit-lamp examination was also performed to establish the health of the eyes. Also, the presence of any general or ocular discomfort of the subject was noted.\nFollowing the establishment of a baseline reading (UVA 20/300), the subject was administered a single intrastromal injection of 50 IU hyaluronidase prior to the orthokeratology treatment. Following 7 days of incubation of the subject's eyes with the injected material, the subject was fitted with corrective contact lenses for overnight wear. The subject wore the corrective lenses day and night for a period of seven (7) days. At this point the subject's visual acuity was 20/15. […] The visual acuity of the subject was then monitored for 196 days to determine the effect of the treatment on the unaided visual acuity of the subject;"}},
  "data": [
    {"smiles": "O=CC(O)CO", "note": "(stereo not drawn) [glyceraldehyde]", "values": [
      {"measurement": "clinical observations (slit lamp scores), statistical analysis vs control group", "setting": "[1]", "value": "no differences between the groups"},
      {"measurement": "pathologic finding in eyes after scraping and healing", "setting": "Dutch Belted rabbit eyes", "value": "superficial scar in the corneal stroma and disruption of Bowman's membrane"},
      {"measurement": "duration of correction of unaided visual acuity", "setting": "[2]", "value": "more than six months"}
    ]}
  ]
}
